Laboratory results reported in US11661581B2, “Use of CDK inhibitors to enhance growth and self-renewal of progenitor cells” (University of Massachusetts, priority 2017, dated 2023).
Entries after “also recorded” stand apart in the source; their conditions may differ.

Key:
[1] = test system: mouse bone marrow erythroid progenitors; experiment: Mouse adult bone marrow erythroid self-renewal culture, amplification of cell number; type: cell-based; settings: for growth of mouse bone marrow erythroid progenitors (in words): drug at five times its respective IC50, two independent experiments
Procedure: (§1) Adult bone marrow mononuclear cells (StemCell Technologies) (A), mouse fetal liver (B) and mouse adult bone marrow (C-D), were cultured in the presence of Dex, Epo, SCF and IGF-1. Dex slows down and delays the transition from self-renewal to differentiation of early CFU-e progenitors, leading to their numerical amplification.
The doses chosen for all these inhibitors were approximately 5 times the IC50 for each drug.

[2] = test system: mouse bone marrow CFU-e progenitors; experiment: CFU-e colony formation in semi-solid medium from mouse bone marrow cultures; type: cell-based; settings: for increase in absolute CFU-e numbers relative to control cultures: day 5 of culture
Procedure: (17B) Mouse bone marrow erythroid progenitors, treated as described in A, but plated on day 5 of the culture in semi-solid medium, CFU-e colonies scored 72 hours later.

[3] = test system: p57KIP2-deficient fetal liver CFUe; experiment: Dex-dependent CFUe self-renewal (expansion) culture of p57KIP2-deficient fetal liver cells; type: cell-based, mouse; settings: self-renewal medium Epo+Dex; roscovitine 0.5 μM
Procedure: (§2) To isolate Ter119-negative cells, fresh fetal liver cells were stained with biotin-conjugated anti-Ter119 (BD Biosciences 553672) at 1:100, followed by EasySep magnetic separation (StemCell Technologies). Cells were grown in Stem-Pro-34 serum free medium supplemented with nutrient supplement (Invitrogen), 1 μM dexamethasone (Sigma), 100 ng/ml SCF (PeproTech), 40 ng/ml IGF1 (PeproTech), 2 U/ml Epo, 100 U/ml penicillin/streptomycin (Invitrogen) and 2 mM L-glutamine (Invitrogen). Cells were maintained at 2×10^6 cells/ml, and supplemented daily with fresh medium and growth factors. To test the effect of roscovitine on p57^KIP2−/− fetal liver cells in expansion culture, cells were grown and maintained as described above with the additional supplemented daily of 0.5 μM roscovitine (EMD Millipore 557360). To switch to differentiation medium, after being maintained in expansion medium for 4 to 5 days, Ter119-negative cells were isolated again using EasySep magnetic beads (StemCell Technologies). Cells were then transferred to IMDM (L-glutamine, 25 mM HEPES) (Gibco), 20% fetal calf serum (Gibco, HyClone), 100 U/ml penicillin/streptomycin (Invitrogen), […] β-mercapthoethanol (Sigma) and 2 U/ml Epo.
We also investigated whether CDK inhibition could underlie the essential role that p57^KIP2 plays in maintaining the viability of self-renewing CFUe.

wild-type CFU-e = experiment: Dex-dependent CFUe self-renewal (expansion) culture of wild-type fetal liver cells; type: cell-based, mouse
Procedure: as §2
In three independent experiments, wild-type cells growing in roscovitine were amplified an average of 1.92±0.43 fold more than wild-type cells without treatment.

[4] = test system: human adult bone marrow mononuclear cells (erythroid progenitors); experiment: Human bone marrow erythroid self-renewal culture, amplification of cell number; type: cell-based; settings: peak on day 16; pooled from two independent experiments; roscovitine concentration not stated (1, 5 or 10 μM)
Procedure: as §1
(§3) We cultured hematopoietic tissue cells from either mouse adult bone marrow, mouse fetal liver (mid-gestation, embryonic day 13.5), or human adult bone marrow (StemCell Technologies, Vancouver, Canada), under conditions that facilitate self-renewal of colony-forming-unit-erythroid (CFU-e), in which the following are added to the culture medium: erythropoietin (Epo, 2 Units/ml), Stem Cell Factor (SCF, 100 ng/ml), Insulin-like Growth Factor 1 (IGF1, 40 ng/ml) and dexamethasone (Dex, 1 μM). Control cultures contained no other specialized additives; parallel cultures had, in addition, the CDK inhibitor roscovitine (1, 5 or 10 μM) (Pippin et al., J Clin Invest 100, 2512-2520 (1997); Meijer et al., European Journal of Biochemistry 243, 527-536 (1997)). […]

[5] = test system: mouse bone marrow self-renewing cultures; experiment: Flow cytometry and BrdU cell cycle analysis of mouse bone marrow self-renewing cultures; type: cell-based
Procedure: (18A) Flow cytometric analysis of mouse bone marrow self-renewing cultures, on day 6 of culture. […] The overall viability of cells in roscovitine-treated cultures was increased (not shown). Bottom panels: corresponding cell cycle analysis of cells in each culture. Cells were pulsed with BrdU at 33 μM for 25 min before analysis.
We examined cells in the self-renewing cultures using flow-cytometry. Cell surface markers CD71 and Ter119 denote the differentiation stage of erythroid progenitors and precursors in mouse hematopoietic tissue^81,41. […] By contrast, control cultures contained a substantial fraction (35%) of Ter119+ cells.

[6] = test system: human bone marrow self-renewing cultures; experiment: Flow cytometry of human bone marrow self-renewing cultures; type: cell-based; settings: day 10 of culture
Excerpt: (18B) Flow cytometric analysis of human bone marrow self-renewing cultures, on day 10 of culture.

[7] = test system: mouse fetal liver erythroid cells; experiment: Mouse fetal liver erythroid self-renewal culture (Example 2), amplification of cell number; type: cell-based; settings: Dex, Epo, SCF, IGF-1
Procedure: as §1, §3

p57KIP2-/- CFUe = experiment: CFUe colony potential of p57KIP2-/- cells from Dex self-renewal cultures; settings: day 11 of culture, 10^5 cells per dish, colonies scored 72 hours after plating
Procedure: (12B) Analysis of CFUe potential in Dex-dependent self-renewal cultures of p57^KIP2−/− cells treated with roscovitine (See FIG. 5I). On day 11 of culture, cells amplified in the presence or absence of roscovitine were plated at 10^5 cells per dish in Epo-containing semi-solid medium. The number of CFUe colonies formed per dish was scored 72 hours following plating.

[8] = test system: human bone-marrow CFU-e progenitors; experiment: CFU-e colony formation in semi-solid medium from human bone marrow cultures; settings: cells taken on day 11 of culture
Procedure: (17A) Human bone-marrow erythroid progenitors were amplified in cultures as in FIG. 1A. On day 11 of culture, cells were plated in semi-solid methylcellulose medium under differentiation conditions (in the presence of Epo and in the absence of Dex or SCF). CFU-e colonies were scored at 72 hours using diaminobenzidine staining to identify hemoglobinized cells. The absolute number of CFU-e progenitors obtained from the same initial starting number in each culture is shown. All statistically significant differences are noted (two-tailed t test, unequal variance).

In the case of NS(=O)(=O)c1ccc(N/N=C2\C(=O)Nc3ccc(Br)cc32)cc1 [SC-221409], the “amplification of erythroid cell number versus control cultures” value ([1]; 0.5 μM) is reported as “significant increase”, the “growth of mouse bone marrow erythroid progenitors (in words)” value (shortened to “growth”) [1] is reported as “improved growth” and the “absolute number of CFU-e progenitors by colony formation assay versus control” value ([2]; 0.5 μM) is reported as “significant increase”.

CC(=O)c1c(C)c2cnc(Nc3ccc(N4CCNCC4)cn3)nc2n(C2CCCC2)c1=O [PD0332991] was tested, and the “amplification of erythroid cell number versus control cultures” value ([1]; 0.1 μM) was “either no significant effect or an inhibitory effect”, the “growth” value [1] was “growth inhibition” and the “absolute number of CFU-e progenitors by colony formation assay versus control” value ([2]; 0.1 μM) was “either no significant effect or an inhibitory effect”.

For CC[C@H](CO)Nc1nc(NCc2ccccc2)c2ncn(C(C)C)c2n1 [roscovitine], the “Dex-dependent self-renewal and expansion of p57KIP2-deficient CFUe” value [3] was “rescued self-renewal; also recorded: rescue the self-renewal; also recorded: successfully rescued”, the “amplification of wild-type CFU-e (in words)” value (wild-type CFU-e; Dex cultures) was “enhanced the amplification; also recorded: also enhanced” and the “amplification of wild-type cells relative to wild-type cells without treatment” value (wild-type CFU-e; average of three independent experiments) was 1.92±0.43 fold. The “progenitors from wild-type cells relative to absence of drug” value (wild-type CFU-e; period of 7-9 days) was 2 fold, the “normal expansion of CFUe cultures derived from wild-type littermates” value (wild-type CFU-e; roscovitine 0.5 μM) was “little effect” and the “peak amplification of cell number” value [4] was 9 fold. The “growth” value [1] was “improved growth”, the “cell numbers in mouse adult bone marrow cultures (in words)” value ([1]; roscovitine 1, 5 or 10 μM) was “significantly higher cell numbers” and the “increase in absolute CFU-e numbers relative to control cultures” value ([2]; 1 μM) was 62%. For the same compound, the “increase in absolute CFU-e numbers relative to control cultures” value ([2]; 5 μM) was 40%, the “number of S phase cells (in words)” value ([5]; BrdU 33 μM pulse for 25 min) was “fewer S phase cells” and the “speed of S phase, rate of BrdU incorporation (BrdU MFI in S phase gate)” value ([5]; BrdU 33 μM pulse for 25 min) was “substantially slower”. The “speed of S phase, rate of BrdU incorporation (BrdU MFI in S phase gate)” value ([5]; BrdU 33 μM pulse for 25 min, listed as Roscovitine) was “slower S phase”, the “terminally-differentiating Ter119+ erythroblasts compared with control (in words)” value ([5]; day 6 of culture) was “relative absence” and the “overall viability of cells in culture” value ([5]; day 6 of culture, data not shown) was “increased”. The “cells in the culture expressing Ter119” value ([5]; mouse bone marrow cultures, roscovitine-treated) was 6%, the “cells expressing glycophorin A (in words)” value [6] was “fewer cells are glycophorin A positive” and the “cells expressing glycophorin A (in words)” value ([6]; listed as Roscovitine) was “lower number”. For the same compound, the “amplification of erythroid cell number in mouse fetal liver cultures (in words)” value [7] was “increased amplification; also recorded: significantly higher cell numbers”, the “CFUe colony forming potential of treated p57KIP2-/- cells versus untreated cells” value (p57KIP2-/- CFUe) was “retained the same potential; also recorded: preserved CFUe colony potential” and the “increase in absolute number of CFU-e progenitors over control cultures” value ([8]; 1 μM) was 3.9 fold. For the same compound, the “increase in absolute number of CFU-e progenitors relative to control” value ([8]; 5 μM) was 4.5 fold.
